Experimental data reported in ChEMBL document CHEMBL1201862, “PubChem BioAssay data set” (2004).
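1) Cells in 96-well plates. 2) Compound, 48 h, 5 concentrations. 3) Linear interpolation between surrounding doses. 4) Unreached endpoint = highest concentration. GI50: concentration for 50% inhibition of growth.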 Active and inactive are the calls of the source. Rule as the data show it: active = GI50 up to about 1.1 µM and inactive = higher.

What was measured:
Assay in all cases: inhibition of tumour cell growth, NCI panel, 48 h
A498 = tested on: A498
CAKI-1 = tested on: CAKI-1
COLO 205 = tested on: COLO 205
HCT-116 = tested on: HCT-116
HL-60 = tested on: HL-60
HOP-62 = tested on: HOP-62
LOX IMVI = tested on: LOX IMVI
LXFL 529 = tested on: LXFL 529
NCI-H460 = tested on: NCI-H460
NCI-H522 = tested on: NCI-H522
OVCAR-3 = tested on: OVCAR-3
OVCAR-4 = tested on: OVCAR-4
RPMI-8226 = tested on: RPMI-8226
SK-MEL-5 = tested on: SK-MEL-5
SK-OV-3 = tested on: SK-OV-3
SNB-19 = tested on: SNB-19
TK-10 = tested on: TK-10
UACC-257 = tested on: UACC-257
UO-31 = tested on: UO-31

Measured: GI50

Clc1ccc(-n2nnc(C3=NCCCN3)c2-c2ccccc2)cc1
inactive: A498 > 100 µM | CAKI-1 > 100 µM | COLO 205 67.3 µM | HCT-116 > 100 µM | HL-60 > 100 µM | HOP-62 > 100 µM | LOX IMVI > 100 µM | LXFL 529 > 100 µM | NCI-H460 > 100 µM | NCI-H522 > 100 µM | OVCAR-3 > 100 µM | OVCAR-4 > 100 µM | RPMI-8226 > 100 µM | SK-MEL-5 75.2 µM | SK-OV-3 > 100 µM | SNB-19 > 100 µM | TK-10 > 100 µM | UACC-257 > 100 µM | UO-31 88.7 µM

CCNC(=O)C#CC(=O)NCC
inactive: A498 > 10 µM | CAKI-1 > 100 µM | COLO 205 44.6 µM | HCT-116 21.9 µM | HL-60 > 39.5 µM | HOP-62 > 100 µM | LOX IMVI > 83.9 µM | LXFL 529 > 93.8 µM | NCI-H460 > 100 µM | NCI-H522 > 31.1 µM | OVCAR-3 > 100 µM | OVCAR-4 > 100 µM | RPMI-8226 > 42.4 µM | SK-MEL-5 > 100 µM | SK-OV-3 > 100 µM | SNB-19 > 100 µM | TK-10 > 100 µM | UACC-257 > 100 µM | UO-31 > 100 µM

Cc1ccc(C)c(NC(=O)c2cc(-c3ccc([N+](=O)[O-])cc3)nc(N)n2)c1
inactive: A498 > 100 µM | CAKI-1 > 100 µM | COLO 205 > 100 µM | HCT-116 > 100 µM | HL-60 > 100 µM | HOP-62 > 100 µM | LOX IMVI > 100 µM | LXFL 529 > 100 µM | NCI-H460 > 100 µM | NCI-H522 > 100 µM | OVCAR-3 > 100 µM | OVCAR-4 > 100 µM | RPMI-8226 > 100 µM | SK-MEL-5 > 100 µM | SK-OV-3 > 100 µM | SNB-19 > 100 µM | TK-10 > 100 µM | UACC-257 > 100 µM | UO-31 > 100 µM

COc1cccc(-c2cc(C(=O)Nc3ccc(Cl)cc3)nc(N)n2)c1
inactive: A498 61.9 µM | CAKI-1 > 100 µM | COLO 205 21.4 µM | HCT-116 42.9 µM | HL-60 32.7 µM | HOP-62 > 100 µM | LOX IMVI 66.1 µM | LXFL 529 52.7 µM | NCI-H460 36.8 µM | NCI-H522 32.4 µM | OVCAR-3 35.3 µM | OVCAR-4 > 100 µM | RPMI-8226 53.1 µM | SK-MEL-5 55.6 µM | SK-OV-3 61 µM | SNB-19 70.8 µM | TK-10 > 100 µM | UACC-257 81.1 µM | UO-31 > 100 µM

CCOc1ccc(NC(=O)/C(Cc2nc3ccccc3nc2O)=N\O)cc1
inactive: A498 > 100 µM | CAKI-1 > 100 µM | COLO 205 > 100 µM | HCT-116 > 100 µM | HL-60 > 10 µM | HOP-62 > 100 µM | LOX IMVI > 100 µM | LXFL 529 > 100 µM | NCI-H460 > 100 µM | NCI-H522 > 100 µM | OVCAR-3 > 100 µM | OVCAR-4 > 100 µM | RPMI-8226 > 100 µM | SK-MEL-5 > 100 µM | SK-OV-3 > 100 µM | SNB-19 > 100 µM | TK-10 > 100 µM | UACC-257 > 100 µM | UO-31 > 100 µM

C[C@]12CCC(=O)C=C1CC[C@@H]1[C@@H]2CC[C@]2(C)C(=O)NC(=O)C[C@@H]12
inactive: A498 > 100 µM | CAKI-1 > 100 µM | COLO 205 > 100 µM | HCT-116 > 100 µM | HL-60 > 100 µM | HOP-62 > 100 µM | LOX IMVI > 100 µM | LXFL 529 > 100 µM | NCI-H460 > 100 µM | NCI-H522 > 100 µM | OVCAR-3 > 100 µM | OVCAR-4 > 100 µM | RPMI-8226 > 100 µM | SK-MEL-5 > 100 µM | SK-OV-3 > 100 µM | SNB-19 > 100 µM | TK-10 > 100 µM | UACC-257 > 100 µM | UO-31 > 100 µM

CC(C)C(Nc1c2ccccc2[n+]([O-])c2ccccc12)C(=O)O (stereo unspecified)
inactive: A498 > 100 µM | CAKI-1 > 100 µM | COLO 205 52.5 µM | HCT-116 44.6 µM | HL-60 26.2 µM | HOP-62 > 100 µM | LOX IMVI 50.9 µM | LXFL 529 32.4 µM | NCI-H460 > 100 µM | NCI-H522 81.3 µM | OVCAR-3 > 100 µM | OVCAR-4 65.8 µM | RPMI-8226 19.7 µM | SK-MEL-5 34.2 µM | SK-OV-3 > 100 µM | SNB-19 > 100 µM | TK-10 > 100 µM | UACC-257 66.2 µM | UO-31 55.5 µM

CC(C)(C)c1cc(Oc2ccc(C#N)c(C#N)c2)cc(C(C)(C)C)c1
inactive: A498 > 100 µM | CAKI-1 > 100 µM | COLO 205 > 100 µM | HCT-116 68.1 µM | HL-60 > 100 µM | HOP-62 > 100 µM | LOX IMVI 33.4 µM | LXFL 529 > 100 µM | NCI-H460 39.9 µM | NCI-H522 36.1 µM | OVCAR-3 > 100 µM | OVCAR-4 > 100 µM | RPMI-8226 > 100 µM | SK-MEL-5 > 100 µM | SK-OV-3 > 100 µM | SNB-19 > 100 µM | TK-10 > 100 µM | UACC-257 > 100 µM | UO-31 > 100 µM

C/C(=N\NS(=O)(=O)c1ccc(C)cc1)C(CN1CCOCC1)C(c1ccccc1)c1c(O)c2ccccc2oc1=O (stereo unspecified)
inactive: A498 > 100 µM | CAKI-1 > 100 µM | COLO 205 40.8 µM | HCT-116 > 100 µM | HL-60 30.8 µM | HOP-62 > 100 µM | LOX IMVI > 100 µM | LXFL 529 > 100 µM | NCI-H460 > 100 µM | NCI-H522 59.8 µM | OVCAR-3 89.5 µM | OVCAR-4 > 100 µM | RPMI-8226 35.2 µM | SK-MEL-5 > 100 µM | SK-OV-3 > 100 µM | SNB-19 > 100 µM | TK-10 > 100 µM | UACC-257 > 100 µM | UO-31 72.3 µM
